Columns and labels:
C57BL/6J mice = test: Chronic intermittent ethanol (CIE) exposure mouse model of ethanol dependence; format: in vivo
Description: Briefly, mice were divided into test (ethanol dependent) and control (non-ethanol dependent) groups. Mice in the former group were exposed to chronic intermittent ethanol (CIE) vapor (16 hr/day×4 days), and then forced to abstain from alcohol for 72 hours. Mice were then permitted access to ethanol for 2 h/day for a 5-day test period. This pattern of weekly CIE exposures followed by 5-day test periods was repeated for 9 cycles. Mice in the control group were treated in the same manner, except these animals were exposed to air rather than ethanol vapors. Mice from both groups were further divided into four sub-groups with animals receiving 0 mg/Kg, 3 mg/Kg, 6 mg/Kg or 12 mg/Kg dose of ibudilast.
In a separate study, adult male C57BL/6J mice were used to evaluate ibudilast as a therapeutic for the treatment of alcohol dependence. Two groups of mice were used for the study. Mice in the first group were trained to drink ethanol using a 2 h/day free-choice (15% v/v ethanol) drinking procedure (ethanol dependent (EtOH) mice), while mice in the second group were provided water and served a control (ethanol nondependent (CTL)) mice. Both the ethanol dependent and ethanol non-dependent groups had equal number of mice (N=37-38/group).
Mice in the alcohol dependent group were then exposed to chronic intermittent ethanol (CIE) vapors for 16 hr/day over four days. After a 72 hours forced abstinence period, the ethanol dependent mice were again permitted access to ethanol for 2 hours each day over a 5 consecutive test days. This pattern of chronic intermittent ethanol vapor exposure for four consecutive days followed by forced abstinence and a five day ethanol access test period was repeated for 9 cycles. Mice in the control (CTL) group were treated in a similar manner except that air was used in the inhalation chambers in place of ethanol vapors.
Both control and ethanol dependent mice received subcutaneous (s.c.) injections of the vehicle at 9 hours and 1 hour prior to the start of daily drinking sessions during Test Cycles 4, 5 and 6 to acclimate the animals to handling and administration of injections.
At the end of test cycle 6, mice in the ethanol dependent group and the control group were separated into four sub-groups with animals receiving one of four doses of ibudilast—0 mg/Kg, 3 mg/Kg, 6 mg/Kg or 12 mg/Kg during Test Cycles 7 and 8. Each sub-group contained 9-10 mice (N=9-10/group). The dose of ibudilast was increased during Test Cycle 9 with ethanol dependent and control mice receiving one of the following four doses of ibudilast—0 mg/Kg, 6 mg/Kg, 12 mg/Kg, or 18 mg/Kg. Thus, mice previously receiving a dose of […] were administered ibudilast at a dose of 18 mg/Kg during Test Cycle 9.

[1] = test system: non-treatment-seeking individuals with AUD; test: Phase 1b study: daily alcohol craving (AUQ); format: in vivo, human; settings: 50 mg BID; over the course of the study; p<0.05; FIG. 4
Description: Twenty four non-treatment-seeking individuals with AUD were treated with ibudilast (50 mg BID) and placebo (PBO). Participants completed two alcohol IV challenges, one after taking IBUD for 6 days and one after taking matched PBO for 6 days with a 5-10 day washout period between the study drug conditions. Ibudilast was obtained in the form of capsules containing a delayed-release 10 mg formulation. Matching capsules of the placebo also were obtained. Each participant visited the Clinical and Translational Research Center (CTRC) during on Days 1-5 of each medication condition during which they came in for daily morning visits with the study nurse to take the morning study medication under direct observation and took home the evening study medication. The participants stayed overnight on Day 6 and were discharged on Day 7. […]
The study comprised a treatment group and a placebo group and each participant completed a daily assessment questionnaire to address changes in mood, withdrawal effects, alcohol cravings, and address issues pertaining to other side effects. […] Following the intravenous alcohol challenge, participants were monitored for 24 hours and then discharged. Following a 5-10 day washout period study participants were readmitted to the CTRC where they received the opposite treatment (IBUD or PBO) for the second part of the study.

[2] = test system: non-treatment-seeking individuals with AUD; test: Phase 1b study: intravenous alcohol administration (IV-A) challenge, with post-hoc BDI analysis; format: in vivo, human; settings: for Response to Alcohol Challenge (alcohol-induced stimulation, positive affect, negative affect, liking, wanting): post-hoc, subjects with higher BDI scores at baseline, vs placebo and vs lower BDI subjects
Description: Infusion was performed by the study nurse under the supervision of the study physician using a 6% alcohol IV infusion. An alcohol infusion nomogram provides a formula for obtaining the rate of infusion based on the participant's gender and weight. Thus, male participants' were infused at a rate determined by the following formula: 0.166-ml/minute×weight in kilogram while the rate of infusion for female participants was calculated as 0.126-ml/minute×weight in kilograms.
Breath alcohol content (BrAC) was monitored every 3 to 5 minutes during infusion until target BrAC's of 0.02 g·dl, 0.04 g·dl, 0.06 g·dl, and 0.08 g·dl were obtained, following which infusion rates were reduced to half the original rate to maintain stable BrAC levels during the testing phase. The following parameters were assessed prior to intravenous alcohol challenge and again at each target BrAC: (1) Biphasic Alcohol Effects Scale (BAES) to obtain a reliable and valid measure of alcohol's stimulant and sedative effects; (2) Alcohol Urge Questionnaire (AUQ)—an 8-item scale where subjects rate their craving for alcohol at the present moment, which is appropriate for examining the level of the urge to drink alcohol; (3) Alcohol Ratings Scale, which captures “liking” and “wanting” of alcohol”; (4) The Profile of Mood States (POMS; McNair 1971) which was used to record positive and negative mood states; and (5) Heart Rate and Blood Pressure levels measure at baseline and at each target level of BrAC.
To probe the possible relationship between MN-166, mood, and subjective responses to alcohol, further analysis was performed. The following variables were explored in all participants: • 1. Baseline scores for depressive symptomology (as measured by the Beck Depression Inventory (BDI)) were collected. • 2. Responses to Alcohol Challenge (e.g., alcohol-induced stimulation, positive affect, negative affect, “liking,” and “wanting”) were compared between subjects with higher BDI scores (more depressive symptomology) and dysphoria and subjects with lower BDI scores (less depressive symptomology) and dysphoria.

CC(C)C(=O)c1c(C(C)C)nn2ccccc12 [ibudilast, Ibudilast]
ethanol intake of alcohol dependent mice vs control group counterparts (C57BL/6J mice; 6 mg, Test Cycle 9, p<0.05): consumed significantly more ethanol
difference in ethanol intake between alcohol dependent and control mice (C57BL/6J mice; 12 mg/Kg and 18 mg/Kg, Test Cycle 9): no significant difference
reduction of ethanol intake, alcohol dependent vs control mice (Group x Dose interaction) (C57BL/6J mice; 12 mg/Kg and 18 mg/Kg, Test Cycle 9, p<0.01): more effective at reducing ethanol intake in alcohol dependent mice than control mice
ethanol intake (C57BL/6J mice; 12 mg/Kg s.c., alcohol dependent mice, before Test Cycle 8 (FIG. 2)): reduced ethanol in alcohol dependent mice
ethanol consumption relative to vehicle (C57BL/6J mice; 12 mg/Kg, Test Cycle 8, both alcohol dependent and control mice, p<0.05): reduced ethanol consumption to a greater extent
concurrent water intake (C57BL/6J mice; associated with decreased ethanol intake): significant increases
ethanol intake of test (ethanol dependent) group vs control group (C57BL/6J mice; at the higher doses (FIG. 2)): below those for mice in the control group
basal, daily alcohol craving (AUQ) [1]: significantly decreased
subjective response to alcohol during the infusion ([2]; 50 mg BID, day 6 IV alcohol): did not affect
Response to Alcohol Challenge (alcohol-induced stimulation, positive affect, negative affect, liking, wanting) ([2]; listed as MN-166): less positive and more negative responses
Response to Alcohol Challenge (alcohol-induced stimulation, positive affect, negative affect, liking, wanting) ([2]; negative responses to alcohol): more negative
Response to Alcohol Challenge (alcohol-induced stimulation, positive affect, negative affect, liking, wanting) ([2]; positive responses to alcohol): less positive,

Reference: patent publication US20190151294A1, “TREATMENT OF ALCOHOLISM AND DEPRESSION AND/OR DYSPHORIC MOOD USING IBUDILAST” (MEDICINOVA, INC., priority 2016, published 2019)
